Test results reported in ChEMBL document CHEMBL1641470, “New azoles with antifungal activity: Design, synthesis, and molecular docking” (2011).
≈ marks a conversion by molar mass, not a printed value.

Tests used:
Format in all cases: functional
Candida tropicalis = assay: Antifungal activity against Candida tropicalis by broth microdilution method
Nannizzia gypsea = assay: Antifungal activity against Microsporum gypseum by broth microdilution method
Candida albicans = assay: Antifungal activity against Candida albicans ATCC Y0109 after 24 hrs by broth microdilution method
Fusarium = assay: Antifungal activity against Fusarium by broth microdilution method
Cryptococcus neoformans = assay: Antifungal activity against Cryptococcus neoformans ATCC BLS108 after 72 hrs by broth microdilution method
Aspergillus fumigatus = assay: Antifungal activity against Aspergillus fumigatus by broth microdilution method
Trichophyton rubrum = assay: Antifungal activity against Trichophyton rubrum by broth microdilution method
Candida parapsilosis = assay: Antifungal activity against Candida parapsilosis by broth microdilution method; details: Lodderomyces parapsilosis

Structure (SMILES) | MIC80 (Candida tropicalis) [µg/mL] | MIC80 (Nannizzia gypsea) [µg/mL] | MIC80 (Candida albicans) [µg/mL] | MIC80 (Fusarium) [µg/mL] | MIC80 (Cryptococcus neoformans) [µg/mL] | MIC80 (Aspergillus fumigatus) [µg/mL] | MIC80 (Trichophyton rubrum) [µg/mL] | MIC80 (Candida parapsilosis) [µg/mL]
O=C(/C=C/c1ccccc1[N+](=O)[O-])Nc1ccc(N2CCN(CC(O)(Cn3cncn3)c3ccc(F)cc3F)CC2)c(F)c1 (stereo not given) | 1 (≈ 1.65 µM) | 1 (≈ 1.65 µM) | 0.25 (≈ 0.411 µM) | 16 (≈ 26.3 µM) | 1 (≈ 1.65 µM) | 64 (≈ 105 µM) | 0.25 (≈ 0.411 µM) | 1 (≈ 1.65 µM)
O=C(/C=C/c1ccc(Cl)cc1)Nc1ccc(N2CCN(CC(O)(Cn3cncn3)c3ccc(F)cc3F)CC2)c(F)c1 (stereo not given) | 0.0625 (≈ 0.105 µM) | 0.0625 (≈ 0.105 µM) | 0.25 (≈ 0.419 µM) | 0.25 (≈ 0.419 µM) | 0.25 (≈ 0.419 µM) | 1 (≈ 1.67 µM) | 0.25 (≈ 0.419 µM) | 0.0156 (≈ 0.0261 µM)

Continued, values first:

MIC80 (Candida tropicalis) [µg/mL] | MIC80 (Nannizzia gypsea) [µg/mL] | MIC80 (Candida albicans) [µg/mL] | MIC80 (Fusarium) [µg/mL] | MIC80 (Cryptococcus neoformans) [µg/mL] | MIC80 (Aspergillus fumigatus) [µg/mL] | MIC80 (Trichophyton rubrum) [µg/mL] | MIC80 (Candida parapsilosis) [µg/mL] | Structure (SMILES)
0.0625 (≈ 0.102 µM) | 0.25 (≈ 0.408 µM) | 0.0156 (≈ 0.0254 µM) | 0.25 (≈ 0.408 µM) | 0.25 (≈ 0.408 µM) | 4 (≈ 6.52 µM) | 0.0156 (≈ 0.0254 µM) | 0.0625 (≈ 0.102 µM) | O=C(/C=C/c1ccc(Cl)c(Cl)c1)Nc1ccc(N2CCN(CC(O)(Cn3cncn3)c3ccc(F)cc3F)CC2)cc1 (stereo not given)
0.25 (≈ 0.424 µM) | 0.25 (≈ 0.424 µM) | 0.0156 (≈ 0.0265 µM) | 1 (≈ 1.7 µM) | 0.25 (≈ 0.424 µM) | 4 (≈ 6.78 µM) | 0.0625 (≈ 0.106 µM) | 0.0625 (≈ 0.106 µM) | O=C(/C=C/c1cccc([N+](=O)[O-])c1)Nc1ccc(N2CCN(CC(O)(Cn3cncn3)c3ccc(F)cc3F)CC2)cc1 (stereo not given)
0.25 (≈ 0.424 µM) | 0.0625 (≈ 0.106 µM) | 0.0625 (≈ 0.106 µM) | 16 (≈ 27.1 µM) | 1 (≈ 1.7 µM) | 4 (≈ 6.78 µM) | 0.0156 (≈ 0.0265 µM) | 1 (≈ 1.7 µM) | O=C(/C=C/c1ccc([N+](=O)[O-])cc1)Nc1ccc(N2CCN(CC(O)(Cn3cncn3)c3ccc(F)cc3F)CC2)cc1 (stereo not given)
